# System: 299254-011-R-J1-PDC complex spheroid viability
# Test: Anticancer human tumor 299254-011-R-J1-PDC patient-derived melanoma cell line growth inhibition [POLQ]
# Conditions: for IC50: curve of first compound; for viability, T/C: stronger effect = lower value
# Procedure: Multicellular complex tumor spheroid response to Polymerase (POL) inhibitors (novobiocin, ART-558, RP6685) in combination with a variety of drugs and investigational agents in selected tumor cell lines
# The POL inhibitors (novobiocin, ART-558, and RP6685) were evaluated both individually and in combination with standard of care and investigational anticancer small molecules within a complex spheroid model of solid tumors. . Complex spheroids include a stromal component modeled by human endothelial cells (HUVEC) and fibroblasts modeled by human mesenchymal stem cells (MSCs). The concentration ranges selected for each drug and investigational agent were based upon clinically achievable concentrations if the clinical Cmax of the agent was known.
# Compounds. The drugs and investigational agents: novobiocin (NSC847541), ART-558 (NSC835418), RP-6685 (NSC848927), peposertib (NSC802822), ceralasertib (NSC780249), elimusertib (NSC800525), camonsertib (NSC841442), AZD-1390 (NSC803789), olaparib (NSC753686), talazoparib (NSC767125), rucaparib (NSC756644), sotorasib (NSC818433), MRTX-1133 (NSC836407), SN-38 (NSC673596), topotecan (NSC609699), epotoside (NSC141540), doxorubicin (NSC123127), gemcitabine (NSC613327), 5-fluorouracil (NSC19893), paclitaxel (NSC125973), vemurafenib (NSC761431), MSA-2 (NSC828583), SN-011 (NSC837082), adavosertib (NSC754352), prexasertib (NSC758257), carboplatin (NSC241240) and oxaliplatin (NSC266046), were obtained from the National Cancer Institute (NCI) Developmental Therapeutics Program Chemical Repository (21). The FDA-approved anticancer drug set is available from the Developmental Therapeutics Program at https://dtp.cancer.gov/organization/dscb/obtaining/. […] The stock solutions were prepared in dimethyl sulfoxide (DMSO, Sigma-Aldrich, St. Louis, MO, cat. D2650), except for the platinum compounds which were prepared in saline (Quality Biological, Gaithersburg, MD, cat. 114-055-101), at 800-fold the tested concentration and stored at -70 degrees C prior to their use. All drugs and investigational agents were tested over a range starting from a high concentration at or near the clinical Cmax and decreasing in half-log increments. If the clinical Cmax for an agent had not been determined, the highest concentration tested was 10 microM, except for SN-38, which was tested at a high concentration of 1 microM.
# Cell Culture. All cells were maintained in an incubator at 37 degrees C and 5% CO2 with 95% humidity. The PDC lines were cultured according to standard operating procedures established by the NCI PDMR (https://pdmr.cancer.gov). Table 3 of the manuscript, lists the cell lines along with the number of the three cell types plated to form the mct-spheroids and media for tumor cell growth. After thawing, all PDC lines, except 997537-175-T-J1-PDC and 415267-285-R-J2-PDC, were cultured in Matrigel-coated flasks prepared with a working solution of 1X Ham's F-12 nutrient mix, without supplementation (Thermo Fisher Scientific, cat. 11765054), 100 U/mL penicillin-streptomycin (Thermo Fisher Scientific, cat. 15140122), and 2.5% Matrigel (Corning Inc., Corning, NY, cat. 354248) for the first three passages. The two PDC lines 997537-175-T-J1-PDC and 415267-285-R-J2-PDC were cultured on uncoated flasks. The 857933-349-R-J2-PDC line was cultured in 6C/Colon 1B media containing advanced DMEM/F-12 (Thermo Fisher Scientific, cat. 12634028), 10 mM HEPES (Thermo Fisher Scientific, cat. 15630080), 1X GlutaMAX supplement (Thermo Fisher Scientific, cat. 35050061), 0.1 mg/mL primocin (InvivoGen, San Diego, CA, cat. ant-pm-2), 10% defined fetal bovine serum, heat inactivated (HyClone Laboratories Inc., Logan, UT, cat. SH30070.03HI), 50% L-WRN conditioned media (ATCC, cat. CRL-3276), 1.25 mM N-Acetyl-L-cysteine (Sigma-Aldrich, cat. A9165), 10 mM nicotinamide (Sigma-Aldrich, cat. N0636), 1X B-27 supplement (Thermo Fisher Scientific, cat. 17504044), 1X N-2 supplement (Thermo Fisher Scientific, cat. […]
# [1] = second compound 0.0316 µM, first compound 0.0316 µM
# [2] = second compound 0.0316 µM, first compound 0.1 µM
# [3] = second compound 0.0316 µM, first compound 0.316 µM
# [4] = second compound 0.0316 µM, first compound 1 µM
# [5] = second compound 0.0316 µM, first compound 3.16 µM
# [6] = second compound 0.0316 µM, first compound 10 µM
# [7] = second compound 0.1 µM, first compound 0.0316 µM
# [8] = second compound 0.1 µM, first compound 0.1 µM
# [9] = second compound 0.1 µM, first compound 0.316 µM
# [10] = second compound 0.1 µM, first compound 1 µM
# [11] = second compound 0.1 µM, first compound 3.16 µM
# [12] = second compound 0.1 µM, first compound 10 µM
# [13] = second compound 0.316 µM, first compound 0.0316 µM
# [14] = second compound 0.316 µM, first compound 0.1 µM
# [15] = second compound 0.316 µM, first compound 0.316 µM
# [16] = second compound 0.316 µM, first compound 1 µM
# [17] = second compound 0.316 µM, first compound 3.16 µM
# [18] = second compound 0.316 µM, first compound 10 µM
# [19] = second compound 1 µM, first compound 0.0316 µM
# [20] = second compound 1 µM, first compound 0.1 µM
# [21] = second compound 1 µM, first compound 0.316 µM
# [22] = second compound 1 µM, first compound 1 µM
# [23] = second compound 1 µM, first compound 3.16 µM
# [24] = second compound 1 µM, first compound 10 µM
# [25] = second compound 3.16 µM, first compound 0.0316 µM
# [26] = second compound 3.16 µM, first compound 0.1 µM
# [27] = second compound 3.16 µM, first compound 0.316 µM
# [28] = second compound 3.16 µM, first compound 1 µM
# [29] = second compound 3.16 µM, first compound 3.16 µM
# [30] = second compound 3.16 µM, first compound 10 µM
# [31] = second compound 10 µM, first compound 0.0316 µM
# [32] = second compound 10 µM, first compound 0.1 µM
# [33] = second compound 10 µM, first compound 0.316 µM
# [34] = second compound 10 µM, first compound 1 µM
# [35] = second compound 10 µM, first compound 3.16 µM
# [36] = second compound 10 µM, first compound 10 µM
# 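Also: spheroids exposed to drugs for one week before measurement.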
# 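For viability, T/C in this document: percent viability relative to DMSO vehicle control taken as 100%.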
structure (smiles),measurement,setting,value
COc1cccc2c1C(=O)c1c(O)c3c(c(O)c1C2=O)CC(O)(C(=O)CO)CC3OC1CC(N)C(O)C(C)O1 (stereo unspecified) + Nc1ccc(C#CCN(C(=O)Cc2ncc(C(F)(F)F)cc2C(F)(F)F)c2ccc(F)cc2)nn1,IC50,second compound 0.0316 µM,1.07 µM
same,IC50,second compound 0.1 µM,0.927 µM
same,IC50,second compound 0.316 µM,1.02 µM
same,IC50,second compound 1 µM,0.832 µM
same,IC50,second compound 3.16 µM,0.75 µM
same,IC50,second compound 10 µM,0.535 µM
same,"viability, T/C",[1],120%
same,"viability, T/C",[2],85.1%
same,"viability, T/C",[3],83.1%
same,"viability, T/C",[4],56.5%
same,"viability, T/C",[5],17.8%
same,"viability, T/C",[6],1.11%
same,"viability, T/C",[7],89.8%
same,"viability, T/C",[8],94.6%
same,"viability, T/C",[9],63.5%
same,"viability, T/C",[10],54.5%
same,"viability, T/C",[11],17.9%
same,"viability, T/C",[12],1.22%
same,"viability, T/C",[13],93.1%
same,"viability, T/C",[14],75.2%
same,"viability, T/C",[15],65.9%
same,"viability, T/C",[16],61.2%
same,"viability, T/C",[17],16%
same,"viability, T/C",[18],2.99%
same,"viability, T/C",[19],86.6%
same,"viability, T/C",[20],72.2%
same,"viability, T/C",[21],87.2%
same,"viability, T/C",[22],43.9%
same,"viability, T/C",[23],9.65%
same,"viability, T/C",[24],0.5%
same,"viability, T/C",[25],94.9%
same,"viability, T/C",[26],85.7%
same,"viability, T/C",[27],77.1%
same,"viability, T/C",[28],42.7%
same,"viability, T/C",[29],0.52%
same,"viability, T/C",[30],2.06%
same,"viability, T/C",[31],77.7%
same,"viability, T/C",[32],85.9%
same,"viability, T/C",[33],65.3%
same,"viability, T/C",[34],30.5%
same,"viability, T/C",[35],0.39%
same,"viability, T/C",[36],2.85%
CC(C)n1c(=O)n(C)c2cnc3cc(F)c(-c4ccc(OCCCN5CCCCC5)nc4)cc3c21 + Cc1cccc(N(C)C(=O)C2C(O)CCN2c2nc(C)cc(C(F)(F)F)c2C#N)c1,IC50,second compound 0.0316 µM,> 10 µM
same,IC50,second compound 0.1 µM,> 10 µM
same,IC50,second compound 0.316 µM,> 10 µM
same,IC50,second compound 1 µM,> 10 µM
same,IC50,second compound 3.16 µM,> 10 µM
same,IC50,second compound 10 µM,> 10 µM
same,"viability, T/C",[1],98.6%
same,"viability, T/C",[2],102%
same,"viability, T/C",[3],84.6%
same,"viability, T/C",[4],90.1%
same,"viability, T/C",[5],102%
same,"viability, T/C",[6],68.2%
same,"viability, T/C",[7],96.2%
same,"viability, T/C",[8],92.9%
same,"viability, T/C",[9],90.4%
same,"viability, T/C",[10],90.1%
same,"viability, T/C",[11],97%
same,"viability, T/C",[12],81.2%
same,"viability, T/C",[13],93.9%
same,"viability, T/C",[14],98.8%
same,"viability, T/C",[15],89.2%
same,"viability, T/C",[16],88.9%
same,"viability, T/C",[17],94.1%
same,"viability, T/C",[18],76.3%
same,"viability, T/C",[19],92.5%
same,"viability, T/C",[20],96.5%
same,"viability, T/C",[21],89.1%
same,"viability, T/C",[22],98.8%
same,"viability, T/C",[23],93.5%
same,"viability, T/C",[24],67.6%
same,"viability, T/C",[25],113%
same,"viability, T/C",[26],119%
same,"viability, T/C",[27],90.3%
same,"viability, T/C",[28],95.3%
same,"viability, T/C",[29],90.4%
same,"viability, T/C",[30],64.1%
same,"viability, T/C",[31],87.9%
same,"viability, T/C",[32],97%
same,"viability, T/C",[33],106%
same,"viability, T/C",[34],107%
same,"viability, T/C",[35],79.3%
same,"viability, T/C",[36],71.1%
CCc1cc2c(N3CCc4c(cc(Cn5ccnc5)cc4-c4cn(C)nc4C(F)(F)F)C3=O)cc(C)nc2c(OC)n1 + Nc1ccc(C#CCN(C(=O)Cc2ncc(C(F)(F)F)cc2C(F)(F)F)c2ccc(F)cc2)nn1,IC50,second compound 0.0316 µM,> 10 µM
same,IC50,second compound 0.1 µM,> 10 µM
same,IC50,second compound 0.316 µM,> 10 µM
same,IC50,second compound 1 µM,> 10 µM
same,IC50,second compound 3.16 µM,> 10 µM
same,IC50,second compound 10 µM,> 10 µM
same,"viability, T/C",[1],94.3%
same,"viability, T/C",[2],99.2%
same,"viability, T/C",[3],107%
same,"viability, T/C",[4],98.5%
same,"viability, T/C",[5],86.8%
same,"viability, T/C",[6],58.7%
same,"viability, T/C",[7],90.3%
same,"viability, T/C",[8],103%
same,"viability, T/C",[9],117%
same,"viability, T/C",[10],101%
same,"viability, T/C",[11],92.9%
same,"viability, T/C",[12],76.1%
same,"viability, T/C",[13],114%
same,"viability, T/C",[14],110%
same,"viability, T/C",[15],100%
same,"viability, T/C",[16],94.4%
same,"viability, T/C",[17],95%
same,"viability, T/C",[18],63.1%
same,"viability, T/C",[19],107%
same,"viability, T/C",[20],95.7%
same,"viability, T/C",[21],111%
same,"viability, T/C",[22],101%
same,"viability, T/C",[23],89.4%
same,"viability, T/C",[24],70.9%
same,"viability, T/C",[25],116%
same,"viability, T/C",[26],106%
same,"viability, T/C",[27],91.7%
same,"viability, T/C",[28],86.2%
same,"viability, T/C",[29],90.6%
same,"viability, T/C",[30],55.1%
same,"viability, T/C",[31],98.7%
same,"viability, T/C",[32],96.5%
same,"viability, T/C",[33],90.9%
same,"viability, T/C",[34],85.3%
same,"viability, T/C",[35],68%
same,"viability, T/C",[36],61.1%

# Source: PubChem BioAssay AID1963849 (Molecular Pharmacology Branch, DTP, NCI, 2024)
